Measurements: ChEMBL document CHEMBL1132780, “Synthesis and NK1/NK2 receptor activity of substituted-4(Z)-(methoxyimino)pentyl-1-piperazines” (Bioorg Med Chem Lett, 2000)

What was measured:
[1] = molecular target: T1, Substance-K receptor (Homo sapiens, UniProt P21452); assay: Inhibitory activity against human tachykinin receptor 2
T1 sequence (P21452 whole entry): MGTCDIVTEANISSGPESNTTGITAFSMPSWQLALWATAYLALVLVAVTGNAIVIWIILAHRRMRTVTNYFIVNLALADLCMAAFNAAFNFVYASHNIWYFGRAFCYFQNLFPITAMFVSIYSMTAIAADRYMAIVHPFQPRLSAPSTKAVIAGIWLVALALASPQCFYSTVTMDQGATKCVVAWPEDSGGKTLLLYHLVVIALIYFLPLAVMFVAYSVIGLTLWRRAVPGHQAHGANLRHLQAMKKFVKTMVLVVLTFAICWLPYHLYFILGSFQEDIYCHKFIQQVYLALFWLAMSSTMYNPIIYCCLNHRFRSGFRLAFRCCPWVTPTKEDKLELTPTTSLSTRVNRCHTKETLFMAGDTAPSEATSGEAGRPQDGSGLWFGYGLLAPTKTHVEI

[2] = molecular target: Substance-P receptor (Homo sapiens, UniProt P25103); assay: Inhibitory activity against human tachykinin receptor 1
Sequence of Substance-P receptor (P25103 whole entry): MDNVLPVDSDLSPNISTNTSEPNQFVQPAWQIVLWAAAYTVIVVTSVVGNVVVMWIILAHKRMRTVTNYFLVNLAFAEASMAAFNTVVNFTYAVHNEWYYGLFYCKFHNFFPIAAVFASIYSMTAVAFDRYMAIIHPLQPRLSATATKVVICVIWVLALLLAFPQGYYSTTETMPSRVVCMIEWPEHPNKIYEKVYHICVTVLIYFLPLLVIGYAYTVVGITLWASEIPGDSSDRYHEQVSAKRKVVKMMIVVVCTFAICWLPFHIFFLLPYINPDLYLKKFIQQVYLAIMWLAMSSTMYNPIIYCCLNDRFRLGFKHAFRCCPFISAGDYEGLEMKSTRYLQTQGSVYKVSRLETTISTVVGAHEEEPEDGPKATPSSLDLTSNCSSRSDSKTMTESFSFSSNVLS

SMILES	Ki [1] [nM]	Ki [2] [nM]
CO/N=C(\COCc1cc(C(F)(F)F)cc(C(F)(F)F)c1)C(CCN1CCN(CC(=O)N2CCCCC2CO)CC1)c1ccc(Cl)c(Cl)c1 (configuration not stated)	52	47
CO/N=C(\COCc1cc(C(F)(F)F)cc(C(F)(F)F)c1)C(CCN1CCN(CC(=O)NC2CCc3ccccc32)CC1)c1ccc(Cl)c(Cl)c1 (configuration not stated)	> 680	136
CO/N=C(\COCc1cc(C(F)(F)F)cc(C(F)(F)F)c1)C(CCN1CCN(c2ccccc2)CC1)c1ccc(Cl)c(Cl)c1 (configuration not stated)	978	181
CO/N=C(\COCc1cc(C(F)(F)F)cc(C(F)(F)F)c1)C(CCN1CCN(CC(=O)Nc2ccccc2)CC1)c1ccc(Cl)c(Cl)c1 (configuration not stated)	> 680	125
CO/N=C(\COCc1cc(C(F)(F)F)cc(C(F)(F)F)c1)C(CCN1CCN(c2ncccn2)CC1)c1ccc(Cl)c(Cl)c1 (configuration not stated)	217	70
CO/N=C(\COCc1cc(C(F)(F)F)cc(C(F)(F)F)c1)C(CCN1CCN(CC(=O)N2CCC(NC(C)=O)C2)CC1)c1ccc(Cl)c(Cl)c1 (configuration not stated)	48	9
CO/N=C(\COCc1cc(C(F)(F)F)cc(C(F)(F)F)c1)C(CCN1CCN(CC(=O)N2CCC2)CC1)c1ccc(Cl)c(Cl)c1 (configuration not stated)	33	23
CO/N=C(\COCc1cc(C(F)(F)F)cc(C(F)(F)F)c1)C(CCN1CCN(C)CC1)c1ccc(Cl)c(Cl)c1 (configuration not stated)	200	61
CO/N=C(\COCc1cc(C(F)(F)F)cc(C(F)(F)F)c1)C(CCN1CCN(CC(=O)N2CCCC2)CC1)c1ccc(Cl)c(Cl)c1 (configuration not stated)	21	14
CO/N=C(\COCc1cc(C(F)(F)F)cc(C(F)(F)F)c1)C(CCN1CCN(CC(=O)N2CCc3ccccc3C2)CC1)c1ccc(Cl)c(Cl)c1 (configuration not stated)	566	125
CO/N=C(\COCc1cc(C(F)(F)F)cc(C(F)(F)F)c1)C(CCN1CCN(CC(=O)N2CCC(N(C)C)C2)CC1)c1ccc(Cl)c(Cl)c1 (configuration not stated)	95	14
CO/N=C(\COCc1cc(C(F)(F)F)cc(C(F)(F)F)c1)C(CCN1CCN(CC(=O)N2CCCCC2)CC1)c1ccc(Cl)c(Cl)c1 (configuration not stated)	208	82
CO/N=C(\COCc1cc(C(F)(F)F)cc(C(F)(F)F)c1)C(CCN1CCN(CC(=O)N2CCOCC2)CC1)c1ccc(Cl)c(Cl)c1 (configuration not stated)	28	19
CCOC(=O)C1CCN(C(=O)CN2CCN(CCC(/C(COCc3cc(C(F)(F)F)cc(C(F)(F)F)c3)=N/OC)c3ccc(Cl)c(Cl)c3)CC2)CC1 (configuration not stated)	409	24
CO/N=C(\COCc1cc(C(F)(F)F)cc(C(F)(F)F)c1)C(CCN1CCN(CC(=O)N2CCCC(O)C2)CC1)c1ccc(Cl)c(Cl)c1 (configuration not stated)	38	13
CO/N=C(\COCc1cc(C(F)(F)F)cc(C(F)(F)F)c1)C(CCN1CCN(CC(=O)N2CCC(O)C2)CC1)c1ccc(Cl)c(Cl)c1 (configuration not stated)	30	16
CO/N=C(\COCc1cc(C(F)(F)F)cc(C(F)(F)F)c1)C(CCN1CCN(CC(=O)N2CC(O)C2)CC1)c1ccc(Cl)c(Cl)c1 (configuration not stated)	31	22
CCOCCCNC(=O)CN1CCN(CCC(/C(COCc2cc(C(F)(F)F)cc(C(F)(F)F)c2)=N/OC)c2ccc(Cl)c(Cl)c2)CC1 (configuration not stated)	382	39
CO/N=C(\COCc1cc(C(F)(F)F)cc(C(F)(F)F)c1)C(CCN1CCN(CC(=O)N(C(C)C)C(C)C)CC1)c1ccc(Cl)c(Cl)c1 (configuration not stated)	170	82
CO/N=C(\COCc1cc(C(F)(F)F)cc(C(F)(F)F)c1)C(CCN1CCNCC1)c1ccc(Cl)c(Cl)c1 (configuration not stated)	738	30
CO/N=C(\COCc1cc(C(F)(F)F)cc(C(F)(F)F)c1)C(CCN1CCN(CC(=O)N2CCCC3CCCCC32)CC1)c1ccc(Cl)c(Cl)c1 (configuration not stated)	477	136
CO/N=C(\COCc1cc(C(F)(F)F)cc(C(F)(F)F)c1)C(CCN1CCN(CC(=O)N(C)C2CCCCC2)CC1)c1ccc(Cl)c(Cl)c1 (configuration not stated)	368	113
CO/N=C(\COCc1cc(C(F)(F)F)cc(C(F)(F)F)c1)C(CCN1CCN(CC(=O)NC2CC2)CC1)c1ccc(Cl)c(Cl)c1 (configuration not stated)	259	62
CO/N=C(\COCc1cc(C(F)(F)F)cc(C(F)(F)F)c1)C(CCN1CCN(CC(=O)N2CCC[C@H]2C(N)=O)CC1)c1ccc(Cl)c(Cl)c1 (some centres not stated)	26	24
CO/N=C(\COCc1cc(C(F)(F)F)cc(C(F)(F)F)c1)C(CCN1CCN(CC(=O)NCC2CCCO2)CC1)c1ccc(Cl)c(Cl)c1 (configuration not stated)	266	20
CO/N=C(\COCc1cc(C(F)(F)F)cc(C(F)(F)F)c1)C(CCN1CCN(C2CCCCC2)CC1)c1ccc(Cl)c(Cl)c1 (configuration not stated)	128	53
